Data: patent US12458587B2, “Hypoallergenic composition for skin regeneration or skin soothing, containing culture product or extract of Aureobasidium pullulans strain” (AMOREPACIFIC CORPORATION, priority 2018, dated 2025)

What was measured:
keratinocytes (HaCaT) = experiment: Scratch wound healing on keratinocyte monolayer (skin-regenerating effect); format: cell-based, human; details: relative to scratched area as 100%, 12 ppm (positive control 10% FBS), n=4
Method: A linear scratch wound was made on a monolayer of keratinocytes (HaCaT). The HaCaT cells were cultured using Dulbecco's modified Eagle's medium (DMEM, Lonza, USA) containing 10% fetal bovine serum (FBS, GIBCO, USA) in a 5% CO2 incubator at 37° C. Immediately after the application of a scratch, the medium was replaced with a fresh medium containing the sample to be tested and the effect of the test sample on skin regeneration was investigated. The regeneration of the cells on the scratched area was imaged with a time-lapse microscope for 36 hours with 30-minute intervals and wound healing area (%) was compared relative the scratched area (as 100%) (n=4 per group).

rabbit eye = details: 5%; cited from earlier work

Substance: Madecassoside
- Wound healing area (%) 12 hours later (keratinocytes (HaCaT)): 33.56%
- Wound healing area (%) 24 hours later (keratinocytes (HaCaT)): 54.56%
- Wound healing area (%) 36 hours later (keratinocytes (HaCaT)): 62.48%
- Wound healing area (%) Immediately after scratching (keratinocytes (HaCaT)): 0%

Substance: sodium magnesium lauryl-myristyl-6-ethoxy-sulfate [Texapon Asv®]
- eye irritation in the Draize rabbit eye test (rabbit eye): moderate irritation
